Test results as given in US8912188B2, “Substituted quinoxaline carboxylic acids for the inhibition of PASK” (BioEnergenix, LLC, priority 2011, dated 2014).
pIC50: −log10 of the molar value.

target: T1, PASK (Invitrogen) (Homo sapiens, UniProt Q96RG2); assay: PAS Kinase FRET Assay; assay type: biochemical; details: PAS kinase TR-FRET assay (665 nm/615 nm), 2 hours at 25° C.; read-out: IC50 Kinase Domain
T1 construct: IC50 Kinase Domain; purchased Invitrogen
Source text: Biochemical Assay for hPASK Activity
The aim of the FRET assay is to determine the inhibition potential of test compounds on targeted kinase. This assay platform provides a homogenous screening method for measuring kinase activity by quantitating the amount of phospho-substrate in solution following a kinase reaction.
In the presence of kinase and ATP, the Ulight-peptide is phosphorylated and captured by an anti-phospho-substrate antibody, which brings the Eu chelate donor and Ulight acceptor dyes into close proximity.
Titration of kinase at 1 mM ATP was achieved via the following protocol. […] The contents of the plate were incubated at RT for 1 h. The reaction was stopped by adding 5 μl of stop solution to each test well followed by mixing and incubation at RT for 10 minutes. 5 μl of detection mix (detection antibody diluted in detection buffer) was added; the contents of the plate were mixed and then incubated in the dark for 1 hour at RT. […] The results were graphed to calculate the EC50.
Titration of ATP at the EC50 concentration of kinase to determine ATP Km,app. was performed using the following method. […] The contents of the plate were and incubated at RT for 1 h. The reaction was stopped by adding 5 μl of stop solution to each test well followed by mixing and incubation at RT for 10 minutes. […] (detection antibody diluted in detection buffer) was added; the contents of the plate were mixed and then incubated in the dark for 1 hour at RT. […] The results were graphed to calculate the EC50 as the ATP Km,app.
Compound screening was done via the following method. 10 mM stock solution of test compound in DMSO was prepared by dissolving test compound in DMSO at RT for 1 hour, and then sonicating at 100% output for 8 minutes. If compound is not soluble under this condition, it was diluted to 3 mM. Kinase reaction buffer was prepared containing 10 mM MgCl2, 50 mM HEPES, 1 mM EGTA, 0.01% TWEEN-20, 2 mM DTT. […] As a positive control, 2.5 μl of positive compound was added to assay wells, and 2.5 μl of DMSO to assay wells as vehicle control. Kinase solution was prepared in reaction buffer at 2× final assay concentration. Kinase solution (5 μl) was added to each well of the assay plate. The substrate and ATP solution was prepared in kinase reaction buffer at 4× final assay concentration. The kinase reaction was started by adding 2.5 μl of substrate+ATP mix solution to each well of the assay plate. The plate is mixed on a plate shaker; then covered and allowed to react for 2 hours in the dark at 25° C. without shaking. The reaction was stopped by adding 5 μl of stop solution to each test well followed by mixing and incubation at RT for 10 minutes in the dark. 5 μl of detection mix (detection antibody diluted in detection buffer) was added; the contents of the plate were mixed and then incubated in the dark for 1 hour at RT.

T1 sequence (Q96RG2 999-1251 limits assumed): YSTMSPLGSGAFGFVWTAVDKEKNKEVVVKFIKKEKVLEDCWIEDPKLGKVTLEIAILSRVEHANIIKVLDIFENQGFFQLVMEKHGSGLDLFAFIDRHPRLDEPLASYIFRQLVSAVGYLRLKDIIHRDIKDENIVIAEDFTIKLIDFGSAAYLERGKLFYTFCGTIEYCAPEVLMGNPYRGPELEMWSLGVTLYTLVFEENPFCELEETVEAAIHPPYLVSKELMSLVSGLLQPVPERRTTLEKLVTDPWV

SMILES | pIC50
C[C@H]1CCCN1c1nc2cc(C(=O)O)ccc2nc1-c1ccc2[nH]ccc2c1 [Example 40, (S)-2-(1H-Indol-5-yl)-3-(2-methylpyrrolidin-1-yl)quinoxaline-6-carboxylic acid] | > 5.00
C[C@H]1CCCN1c1nc2cc(C(=O)O)ccc2nc1-c1cc2cc(F)ccc2o1 [Example 41, (S)-2-(5-Fluorobenzofuran-2-yl)-3-(2-methylpyrrolidin-1-yl)quinoxaline-6-carboxylic acid] | > 5.00
CC(C)N(C)c1nc2cc(C(=O)O)ccc2nc1-c1ccc2c(c1)OC(F)(F)O2 [Example 42, 2-(2,2-Difluorobenzo[d][1,3]dioxol-5-yl)-3-(isopropyl(methyl)amino)quinoxaline-6-carboxylic acid] | > 5.00
CC(C)N(C)c1nc2cc(C(=O)O)ccc2nc1-c1ccn[nH]1 [Example 43, 3-(Isopropyl(methyl)amino)-2-(1H-pyrazol-5-yl)quinoxaline-6-carboxylic acid] | > 5.00
CC(C)N(C)c1nc2cc(C(=O)O)ccc2nc1-c1ccc2ncccc2c1 [Example 46, 3-(Isopropyl(methyl)amino)-2-(quinolin-6-yl)quinoxaline-6-carboxylic acid] | > 5.00
C[C@H]1CCCN1c1nc2cc(C(=O)O)ccc2nc1-c1ccc2[nH]ncc2c1 [Example 47, 2-(1H-Indazol-5-yl)-3-[(2S)-2-methylpyrrolidin-1-yl]quinoxaline-6-carboxylic acid] | > 5.00
CN(c1nc2cc(C(=O)O)ccc2nc1-c1cc2ccc(F)cc2o1)C1CC1 [Example 49, 3-(Cyclopropyl(methyl)amino)-2-(6-fluorobenzofuran-2-yl)quinoxaline-6-carboxylic acid] | > 5.00
CC(C)N(C)c1nc2cc(C(=O)O)ccc2nc1-c1ccc2oncc2c1 [Example 50, 2-(1,2-Benzoxazol-5-yl)-3-[methyl(propan-2-yl)amino]quinoxaline-6-carboxylic acid] | > 5.00
O=C(O)c1ccc2nc(-c3cc4ccccc4s3)c(N3CCCCC3)nc2c1 [Example 53, 2-(Benzo[b]thiophen-2-yl)-3-(piperidin-1-yl)quinoxaline-6-carboxylic acid] | > 5.00
O=C(O)c1ccc2nc(-c3cc4ccccc4s3)c(N3CCCCCC3)nc2c1 [Example 54, 3-(Azepan-1-yl)-2-(benzo[b]thiophen-2-yl)quinoxaline-6-carboxylic acid] | > 5.00
CC(C)N(C)c1nc2cc(C(=O)O)ccc2nc1-c1ccc2scnc2c1 [Example 56, 2-(Benzo[d]thiazol-5-yl)-3-(isopropyl(methyl)amino)quinoxaline-6-carboxylic acid] | > 5.00
CC(C)N(C)c1nc2cc(C(=O)O)ccc2nc1-c1nc2ccccc2s1 [Example 58, 2-(1,3-Benzothiazol-2-yl)-3-[methyl(propan-2-yl)amino]quinoxaline-6-carboxylic acid] | > 5.00
C[C@H]1CCCN1c1nc2cc(C(=O)O)ccc2nc1-c1nc2ccccc2s1 [Example 59, 2-(1,3-Benzothiazol-2-yl)-3-[(2S)-2-methylpyrrolidin-1-yl]quinoxaline-6-carboxylic acid] | > 5.00
CC(C)N(C)c1nc2cc(C(=O)O)ccc2nc1-c1ccc2nccnc2c1 [Example 60, 3-(isopropyl(methyl)amino)-2,7′-biquinoxaline-6-carboxylic acid] | > 5.00
O=C(O)c1ccc2nc(-c3cc4cc(F)ccc4o3)c(N3CCCC3)nc2c1 [Example 62, 2-(5-Fluoro-1-benzofuran-2-yl)-3-(pyrrolidin-1-yl)quinoxaline-6-carboxylic acid] | > 5.00
O=C(O)c1ccc2nc(-c3ccc4[nH]ccc4c3)c(N3CCCCC3)nc2c1 [Example 65, 2-(1H-Indol-5-yl)-3-(piperidin-1-yl)quinoxaline-6-carboxylic acid] | > 5.00
COC[C@H]1CCCN1c1nc2cc(C(=O)O)ccc2nc1-c1ccc2[nH]ccc2c1 [Example 67, 2-(1H-Indol-5-yl)-3-[(2R)-2-(methoxymethyl)pyrrolidin-1-yl]quinoxaline-6-carboxylic acid] | > 5.00

SMILES | pIC50
CC(C)Nc1nc2cc(C(=O)O)ccc2nc1-c1cc2ccccc2o1 [Example 70, 2-(1-Benzofuran-2-yl)-3-[(propan-2-yl)amino]quinoxaline-6-carboxylic acid] | > 5.00
C[C@H]1CCCN1c1nc2cc(C(=O)O)ccc2nc1-c1ccoc1 [Example 78, 2-(Furan-3-yl)-3-[(2S)-2-methylpyrrolidin-1-yl]quinoxaline-6-carboxylic acid] | > 5.00
C[C@H]1CCCN1c1nc2cc(C(=O)O)ccc2nc1-c1coc2ccccc12 [Example 82, 2-(1-Benzofuran-3-yl)-3-[(2S)-2-methylpyrrolidin-1-yl]quinoxaline-6-carboxylic acid] | > 5.00
CC(C)N(C)c1nc2cc(C(=O)O)ccc2nc1-c1occc1-c1ccccc1 [Example 83, 3-[Methyl(propan-2-yl)amino]-2-(3-phenylfuran-2-yl)quinoxaline-6-carboxylic acid] | > 5.00
CC(C)N(C)c1nc2cc(C(=O)O)ccc2nc1-c1ccc(-c2ccc(F)cc2)o1 [Example 84, 2-[5-(4-Fluorophenyl)furan-2-yl]-3-[methyl(propan-2-yl)amino]quinoxaline-6-carboxylic acid] | > 5.00
CC(C)N(C)c1nc2cc(C(=O)O)ccc2nc1-c1cnn(C)c1 [Example 90, 3-[Methyl(propan-2-yl)amino]-2-(1-methyl-1H-pyrazol-4-yl)quinoxaline-6-carboxylic acid] | > 5.00
CC(C)N(C)c1nc2cc(C(=O)O)ccc2nc1-c1cnn(-c2ccccc2)c1 [Example 91, 3-[Methyl(propan-2-yl)amino]-2-(1-phenyl-1H-pyrazol-4-yl)quinoxaline-6-carboxylic acid] | > 5.00
C[C@H]1CN(c2ccccn2)CCN1c1nc2cc(C(=O)O)ccc2nc1-c1ccc2[nH]ncc2c1 [Example 92, (S)-2-(1H-indazol-5-yl)-3-(2-methyl-4-(pyridin-2-yl)piperazin-1-yl)quinoxaline-6-carboxylic acid] | > 5.00
CC(C)N(C)c1nc2cc(C(=O)O)ccc2nc1-c1ccc2[nH]nnc2c1 [Example 94, 2-(1H-Benzo[d][1,2,3]triazol-5-yl)-3-(isopropyl(methyl)amino)quinoxaline-6-carboxylic acid] | > 5.00
CC(C)N(C)c1nc2cc(C(=O)O)ccc2nc1-c1ccc2c(c1)nnn2C [Example 95, 3-(Isopropyl(methyl)amino)-2-(1-methyl-1H-benzo[d][1,2,3]triazol-5-yl)quinoxaline-6-carboxylic acid] | < 5.00
C[C@H]1CCCN1c1nc2cc(C(=O)O)ccc2nc1-c1ccc2[nH]nnc2c1 [Example 96, (S)-2-(1H-Benzo[d][1,2,3]triazol-5-yl)-3-(2-methylpyrrolidin-1-yl)quinoxaline-6-carboxylic acid] | > 5.00
CN(Cc1ccccc1)c1nc2cc(C(=O)O)ccc2nc1-c1ccc2[nH]ncc2c1 [Example 97, 3-(Benzyl(methyl)amino)-2-(1H-indazol-5-yl)quinoxaline-6-carboxylic acid] | > 5.00
C[C@@H](c1ccccc1)N(C)c1nc2cc(C(=O)O)ccc2nc1-c1ccc2[nH]ncc2c1 [Example 98, (S)-2-(1H-Indazol-5-yl)-3-(methyl(1-phenylethyl)amino)quinoxaline-6-carboxylic acid] | > 5.00
Cc1cc2cc(-c3nc4ccc(C(=O)O)cc4nc3N3CCN(c4ccccn4)C[C@@H]3C)ccc2[nH]1 [Example 99, (S)-2-(2-Methyl-1H-indol-5-yl)-3-(2-methyl-4-(pyridin-2-yl)piperazin-1-yl)quinoxaline-6-carboxylic acid] | > 5.00
O=C(O)c1ccc2nc(-c3ccc(F)cc3)c(N3CCC[C@@H]3C(F)(F)F)nc2c1 [Example 101, (R)-2-(4-Fluorophenyl)-3-(2-(trifluoromethyl)pyrrolidin-1-yl)quinoxaline-6-carboxylic acid] | > 5.00
CN(c1nc2cc(C(=O)O)ccc2nc1-c1ccc(F)cc1)C1CCOCC1 [Example 102, 2-(4-Fluorophenyl)-3-(methyl(tetrahydro-2H-pyran-4-yl)amino)quinoxaline-6-carboxylic acid] | > 5.00
CN(c1nc2cc(C(=O)O)ccc2nc1-c1ccc(F)cc1)C1CCNCC1 [Example 103, 2-(4-Fluorophenyl)-3-(methyl(piperidin-4-yl)amino)quinoxaline-6-carboxylic acid] | > 5.00
